What was measured:
[1] = tested on: PAI-1 production in normal human bronchial epithelial (NHBE) cells; test: TGF-β1-induced PAI-1 gene expression and protein production in NHBE cells (real-time PCR, ELISA); assay type: cell-based; settings: for TGF-β1-induced PAI-1 protein production: 6 hours, NHBE
Protocol: Normal human bronchial epithelial (NHBE) cells were cultured, as previously described in Cho S H, Lee S H, Kato A, Takabayashi T, Kulka M, Shin S C, et al. Cross-talk between human mast cells and bronchial epithelial cells in plasminogen activator inhibitor-1 production via transforming growth factor-b1. Am J Respir Cell Mol Biol 2015; 52:88-95, herein incorporated by reference in its entirety into this disclosure. […] Cell pellets were used for real-time PCR, and cell-culture supernatants were used for PAI-1 protein ELISA.
The PAI-1 concentration in the blood of subjects and supernatants of NHBE cells was measured in duplicate by means of ELISA (Assay Pro, St Charles, Mo), as previously described in Cho et al. 2015, herein incorporated by reference in its entirety into this disclosure. For mRNA analysis of PAI-1 (Hs00167155_m1), quantitative real-time PCR was performed with the ViiA 7 Real-Time PCR System (Applied Biosystems, Foster City, Calif). Expression of glyceraldehyde-3-phosphate dehydrogenase (GAPDH; Hs02786624_g1) was used as an internal control for normalization. Cycling conditions were as follows: 50° C. for 2 minutes (hold) for 1 cycle, 95° C. for 10 minutes (hold) for 1 cycle, and 95° C. for 15 seconds and 60° C. for 1 minute (cycling) for 40 cycles. Relative gene expression was calculated by using the comparative 2^−ΔΔCT method.
To investigate the cellular mechanism of the soy isoflavone/PAI-1 link, the inventors treated cultured NHBE cells with TGF-β1 (2 ng/mL) for 6 hours with and without genistein pretreatment. There was a significant increase in PAI-1 mRNA and protein production (about 10-fold) after adding TGF-β1 (FIG. 1). […] Soy isoflavones reduce asthma exacerbation in high PAI-1 producing genotype. (FIG. 2)
There was a significant increase of the PAI-1 mRNA and protein production (about 10-fold) after adding the TGF-β1 (FIG. 5).

pDCs = settings: cited from earlier work
human rhinovirus (HRV) = settings: compared with guideline-driven care alone; cited from earlier work
[2] = tested on: murine model of asthma (BALB/c mice); test: Airway hyperresponsiveness (total respiratory system resistance, FlexiVent) in OVA murine model of asthma; assay type: in vivo, mouse; settings: summary
Protocol: Eight-week-old BALB/c mice were purchased from The Jackson Lab and housed in standard laboratory conditions (12/12-h light/dark cycle, 22-24° C., 40-60% humidity). Forty female mice were divided into four groups (namely, OVA+Veh, OVA+Bio300, PBS+Veh, PBS+Bio300). Genistein (Bio300, Humanetics Corp.) was administered to two of the groups in conjunction with either OVA or PBS. The mice in each group (n=10) were equally divided into two cages (5 mice/cage) to provide appropriate space for the mice. […]
From Day 14 to Day 28, the OVA+Bio300 and PBS+Bio300 groups received Bio300 (100 ul) by oral gavage every other day. […] On Day 29, airway hyperresponsiveness (AHR) was assessed and tissues were obtained for further analysis.
All mice were anesthetized with ketamine, tracheostomized, and mechanically ventilated with a FlexiVent system (SCIREQ, Flexivent, Scireq Inc., Montreal, Canada) as described in Choi et al., incorporated by reference in its entirety herein. […] Volume changes due to thoracic expansion and alterations in tracheal pressure were measured in response to challenges with increasing concentrations of methacholine (3, 6, 12, 25, and 50 mg/mL) and reported as total respiratory system resistance (Rrs).

TGF-β1: recombinant human TGF-β1 (R&D Systems), stimulus of PAI-1 production [reference compound]
Increase in PAI-1 mRNA and protein production ([1]; NHBE cells, TGF-β1 2 ng/mL for 6 hours): about 10 fold

omalizumab: costly biological agent blocking IgE, administered by injection
Interferon alpha production from pDCs (pDCs; ex vivo and in vivo treatment): restored
Reduction of FcεRIα expression on pDCs (pDCs; omalizumab treatment, previous study): about 57%
Duration of HRV infections, viral shedding, and risk of HRV-related illness (human rhinovirus (HRV)): decreased

O=c1c(-c2ccc(O)cc2)coc2cc(O)cc(O)c12 [genistein]
PAI-1 production from human bronchial EC and mast cells ([1]; FIG. 5 legend): significantly reduces
TGF-β1-induced PAI-1 gene expression and protein production ([1]; NHBE cells, genistein pretreatment): significantly reduced
TGF-β1-induced PAI-1 protein production ([1]; genistein 1 μM pretreatment, TGF-β1 2 ng/ml): 360700 ± 10500 pg/mL
TGF-β1-induced PAI-1 protein production ([1]; genistein 5 μM pretreatment, TGF-β1 2 ng/ml): 306.0 ± 5.3 pg/mL
TGF-β1-induced PAI-1 protein production ([1]; genistein 5 mmol/L pretreatment, TGF-β1 2 ng/mL): 306.0 ± 5.3 pg/mL
Allergic inflammation and airway hyperreactivity [2]: reduced allergic inflammation and improved airway hyperreactivity

Source: patent US20240139223A1, “SOY ISOFLAVONES FOR ASTHMA PREVENTION” (University of South Florida, priority 2021, published 2024)
